The results in this text go back to paper PMC6627609, “Targeting Quorum Sensing: High-Throughput Screening to Identify Novel LsrK Inhibitors” (International Journal of Molecular Sciences, 2019).

Counter-ions that a name gives are not always drawn.

This experiment deals with LsrK (Salmonella typhimurium, UniProt Q8ZKQ6). Put plainly: biochemical. The class given is biochemical, S. typhimurium. Particulars: for Inhibition (%): 50 µM.
LsrK, sequence (Q8ZKQ6 whole entry): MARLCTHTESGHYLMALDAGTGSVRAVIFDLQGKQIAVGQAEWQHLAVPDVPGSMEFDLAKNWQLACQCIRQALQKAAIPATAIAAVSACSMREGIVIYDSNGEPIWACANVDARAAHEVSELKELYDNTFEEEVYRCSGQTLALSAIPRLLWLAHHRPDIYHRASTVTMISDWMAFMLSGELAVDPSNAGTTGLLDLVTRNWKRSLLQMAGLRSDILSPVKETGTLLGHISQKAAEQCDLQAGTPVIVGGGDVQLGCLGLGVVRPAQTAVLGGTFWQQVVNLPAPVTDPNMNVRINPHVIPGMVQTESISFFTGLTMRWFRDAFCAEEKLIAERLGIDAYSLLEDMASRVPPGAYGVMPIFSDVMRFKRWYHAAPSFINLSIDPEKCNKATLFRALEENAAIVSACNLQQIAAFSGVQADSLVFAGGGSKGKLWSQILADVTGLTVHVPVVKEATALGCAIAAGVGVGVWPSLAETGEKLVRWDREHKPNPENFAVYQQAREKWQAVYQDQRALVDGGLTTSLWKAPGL

For orientation: inhibition means the change of the read-out against control, counted positive when it falls. Regarding `C[C@]12CC[C@@H](O)C[C@@H]1CC[C@@H]1[C@@H]2CC[C@]2(C)C(=O)CC[C@@H]12` [ANDROSTERONE], the inhibition at 50 µM amounted to 1%.

Turning to `COc1ccc([C@@H](C)C(=O)c2ccc(O)cc2O)cc1` [ANGOLENSIN (R)], the inhibition at 50 µM was found to be 1%.

As for `COc1ccc2c(=O)c(CC(=O)O)coc2c1` [ANHYD[…]], the inhibition at 50 µM is 3%.

Take `c1ccc(CN(CC2=NCCN2)c2ccccc2)cc1` [ANTAZOLINE PHOSPHATE]: the inhibition at 50 µM was 1%.

As for `O=C1c2c(O)cccc2Cc2cccc(O)c21` [ANTHRALIN], the inhibition at 50 µM stood at 8%.

`O=C1c2ccccc2C(=O)c2ccccc21` [ANTHRAQUINONE]: the inhibition at 50 µM was 0%.

For `COc1cc(O)cc(OC)c1OC` [ANTIAROL], the inhibition at 50 µM came to 21%.

With `O=c1cc(-c2ccc(O)cc2)oc2cc(O[C@@H]3O[C@H](CO)[C@@H](O)[C@H](O)[C@H]3O[C@@H]3OC[C@](O)(CO)[C@H]3O)cc(O)c12` [APIIN], the inhibition at 50 µM stood at 1%.

Regarding `C=CCc1cc(OC)c2c(c1OC)OCO2` [APIOLE], the “Inhibition (%)” value is reported as 1.

With `COc1cc2c(cc1OC)-c1c(oc3cc(O)cc(O)c3c1=O)CO2` [APOTOXICAROL], the “Inhibition (%)” value worked out at 1.

Consider `OCC(O)C(O)C(O)CO` (stereo not shown) [ARABITOL(D)], for which the “Inhibition (%)” value was determined as 0.

For `OC[C@H]1O[C@@H](Oc2ccc(O)cc2)[C@H](O)[C@@H](O)[C@@H]1O` [ARBUTIN], the inhibition at 50 µM was determined as 2%.

Consider `Cl.N=C(N)NCCC[C@H](N)C(=O)O` [ARGININE HYDROCHLORIDE], for which the “Inhibition (%)” value amounted to 1.

Consider `C[C@H]1[C@@H](O)O[C@@H]2O[C@@]3(C)CC[C@H]4[C@H](C)CC[C@@H]1[C@@]24OO3` [ARTENIMOL], for which the inhibition at 50 µM came out at 0%.

Regarding `CCCCCCCCCCCCCCCC(=O)OC[C@H](O)[C@H]1OC(=O)C(O)=C1O` [ASCORBYL PALMITATE], the inhibition at 50 µM was determined as 28%.

As to `C[C@H]1[C@H](C)CC[C@]2(C(=O)O)CC[C@]3(C)C(=CC[C@@H]4[C@@]5(C)C[C@@H](O)[C@H](O)[C@@](C)(CO)[C@@H]5CC[C@]43C)[C@H]12` [ASIATIC ACID], the inhibition at 50 µM was found to be 2%.

As to `CC(=O)Oc1ccccc1C(=O)O` [ASPIRIN], the inhibition at 50 µM turned out to be 0%.

As for `CC1=C(/C=C/C(C)=C/C=C/C(C)=C/C=C/C=C(C)/C=C/C=C(C)/C=C/C2=C(C)C(=O)[C@@H](O)CC2(C)C)C(C)(C)C[C@H](O)C1=O` [ASTAXANTHIN], the inhibition at 50 µM is 1%.

`O=C1C(O)=C([C@H]2CC[C@H](c3ccc(Cl)cc3)CC2)C(=O)c2ccccc21` [ATOVAQUONE]: the inhibition at 50 µM came out at 1%.

Regarding `COC(=O)c1c(C)cc(OC(=O)c2c(C)cc(O)c(C=O)c2O)c(C)c1O` [ATRANORIN], the inhibition at 50 µM is 0%.

On to `CN1[C@@H]2CC[C@H]1C[C@@H](OC(=O)C(CO)c1ccccc1)C2` (stereo partly shown) [ATROPINE SULFATE], for which the inhibition at 50 µM was found to be 3%.

Turning to `OC[C@H]1O[C@H]([S-])[C@H](O)[C@@H](O)[C@@H]1O.[Au+]` [AUROTHIOGLUCOSE], the “Inhibition (%)” value stood at 104.

Consider `C=CCCCCCCCCCCCc1ccco1` [AVOCADENOFURAN], for which the “Inhibition (%)” value was 2.

Regarding `C#CCCCCCCCCCCCC(O)CC(O)COC(C)=O` (stereo not shown) [AVOCADYNE ACETATE], the inhibition at 50 µM was 1%.

As for `Nc1ncn([C@@H]2O[C@H](CO)[C@@H](O)[C@H]2O)c(=O)n1` [AZACITIDINE], the inhibition at 50 µM was found to be 9%.

With `O=C(CCCN1CCN(c2ccccn2)CC1)c1ccc(F)cc1` [AZAPERONE], the inhibition at 50 µM was 25%.

For the compound `[N-]=[N+]=CC(=O)OC[C@H](N)C(=O)O` [AZASERINE], the inhibition at 50 µM turned out to be 3%.

`O=C(O)CCCCCCCC(=O)O` [AZELAIC ACID]: the inhibition at 50 µM turned out to be 3%.

`CN1CCCC(n2nc(Cc3ccc(Cl)cc3)c3ccccc3c2=O)CC1` (stereo not shown) [AZELASTINE HYDROCHLORIDE]: the inhibition at 50 µM was determined as 1%.

Take `CC1(C)S[C@@H]2[C@H](NC(=O)[C@H](NC(=O)N3CCNC3=O)c3ccccc3)C(=O)N2[C@H]1C(=O)O` [AZLOCILLIN SODIUM]: the inhibition at 50 µM was 0%.

Regarding `c1ccc(/N=N/c2ccccc2)cc1` [AZOBENZENE], the inhibition at 50 µM was determined as 1%.

Take `C[C@H]1[C@H](NC(=O)/C(=N\OC(C)(C)C(=O)O)c2csc(N)n2)C(=O)N1S(=O)(=O)O` [AZTREONAM]: the inhibition at 50 µM is 1%.

Regarding `CCOC(=O)OC(C)OC(=O)[C@@H]1N2C(=O)[C@@H](NC(=O)[C@H](N)c3ccccc3)[C@H]2SC1(C)C` (stereo partly shown) [BACAMPICILLIN HYDROCHLORIDE], the inhibition at 50 µM came to 5%.

Take `CC(=O)O[C@H]1C(=O)[C@@]2(C)[C@H]([C@H](OC(=O)c3ccccc3)[C@]3(O)C[C@H](O)C(C)=C1C3(C)C)[C@]1(OC(C)=O)CO[C@@H]1C[C@@H]2O` [BACCATIN III]: the inhibition at 50 µM is 9%.

Turning to `O=c1cc(-c2ccccc2)oc2cc(O)c(O)c(O)c12` [BAICALEIN], the inhibition at 50 µM is 2%.

On to `CCC1(CC)C(=O)NC(=O)NC1=O` [BARBITAL], for which the inhibition at 50 µM worked out at 1%.

For `CCOC(=O)[C@H](CCc1ccccc1)N[C@H]1CCc2ccccc2N(CC(=O)O)C1=O` [BENAZEPRIL HYDROCHLORIDE], the inhibition at 50 µM came out at 0%.

Regarding `NS(=O)(=O)c1cc2c(cc1C(F)(F)F)NC(Cc1ccccc1)NS2(=O)=O` (stereo not shown) [BENDROFLUMETHIAZIDE], the inhibition at 50 µM worked out at 0%.

Regarding `CC(Cc1cccc(C(F)(F)F)c1)NCCOC(=O)c1ccccc1` (stereo not shown) [BENFLUOREX HYDROCHLORIDE], the inhibition at 50 µM was 4%.

`C/C(=C(\CCOP(=O)(O)O)SC(=O)c1ccccc1)N(C=O)Cc1cnc(C)nc1N` [BENFOTIAMINE]: the inhibition at 50 µM is 0%.

As for `NC(CO)C(=O)NNCc1ccc(O)c(O)c1O` (stereo not shown) [BENSERAZIDE HYDROCHLORIDE], the inhibition at 50 µM was 97%.

For `O=C(CNC(=O)c1ccc(Cl)cc1)NO` [BENURESTAT], the “Inhibition (%)” value is given as 3.

For the compound `CCc1oc2ccccc2c1C(=O)c1cc(Br)c(O)c(Br)c1` [BENZBROMARONE], the inhibition at 50 µM came out at 106%.

For `O=C(O)c1ccccc1` [BENZOIC ACID], the inhibition at 50 µM turned out to be 3%.

As for `O=C(Oc1cccc2cccnc12)c1ccccc1` [BENZOXIQUINE], the inhibition at 50 µM came to 0%.

As to `O=C(OOC(=O)c1ccccc1)c1ccccc1` [BENZOYL PEROXIDE], the inhibition at 50 µM was 11%.

Turning to `S=C=NCc1ccccc1` [BENZYL ISOTHIOCYANATE], the inhibition at 50 µM worked out at 2%.

Regarding `C[N+](C)(CCOc1ccccc1)Cc1ccccc1.O=C([O-])c1cc2ccccc2cc1O` [BEPHENIUM HYDROXYNAPTHOATE], the “Inhibition (%)” value came to 1.

Consider `CC(C)COCC(CN(Cc1ccccc1)c1ccccc1)N1CCCC1` (stereo not shown) [BEPRIDIL HYDROCHLORIDE], for which the inhibition at 50 µM is 18%.

Regarding `COc1ccc2cc3[n+](cc2c1OC)CCc1cc2c(cc1-3)OCO2` [BERBERINE CHLORIDE], the inhibition at 50 µM worked out at 1%.

With `COc1c(O)cc2c(c1O)[C@@H]1O[C@H](CO)[C@@H](O)[C@H](O)[C@H]1OC2=O` [BERGENIN], the inhibition at 50 µM is 0%.

Consider `O=C1CCO1` [BETA-PROPIOLACTONE], for which the “Inhibition (%)” value was found to be 0.

Turning to `CCC(=O)OCC(=O)[C@@]1(OC(=O)CC)[C@@H](C)C[C@H]2[C@@H]3CCC4=CC(=O)C=C[C@]4(C)[C@@]3(F)[C@@H](O)C[C@@]21C` [BETAMETHASONE 17.21-DIPROPIONATE], the “Inhibition (%)” value came to 0.

As to `C[C@H]1C[C@H]2[C@@H]3CCC4=CC(=O)C=C[C@]4(C)[C@@]3(F)[C@@H](O)C[C@]2(C)[C@@]1(O)C(=O)CO` [BETAMETHASONE], the inhibition at 50 µM was found to be 1%.

On to `O=C(O)CCNC(=O)c1ccccc1` [BETAMIPRON], for which the inhibition at 50 µM stood at 0%.

`C=C(C)[C@@H]1CC[C@]2(CO)CC[C@]3(C)[C@H](CC[C@@H]4[C@@]5(C)CC[C@H](O)C(C)(C)[C@@H]5CC[C@]43C)[C@@H]12` [BETULIN]: the inhibition at 50 µM came to 4%.

As for `CC(C)(Oc1ccc(CCNC(=O)c2ccc(Cl)cc2)cc1)C(=O)O` [BEZAFIBRATE], the inhibition at 50 µM is 2%.

As for `COc1ccc(-c2coc3cc(O)cc(O)c3c2=O)cc1` [BIOCHANIN A], the “Inhibition (%)” value was determined as 25.

For the compound `OC(CCN1CCCCC1)(c1ccccc1)C1CC2C=CC1C2` (stereo not shown) [BIPERIDEN], the inhibition at 50 µM is 1%.

With `CCc1ccc2c(O)c3c(cc2c1C(=O)OC)C(=O)c1c(O)ccc(O)c1C3=O` [BISANHYDRORUTILANTINONE], the inhibition at 50 µM is 2%.

Take `CC(C)NCC(O)COc1ccc(COCCOC(C)C)cc1` (stereo not shown) [BISOPROLOL FUMARATE]: the inhibition at 50 µM was determined as 0%.

On to `COC(=O)/C=C/C(C)=C\C=C\C(C)=C\C=C\C=C(C)\C=C\C=C(C)\C=C\C(=O)O` [BIXIN], for which the inhibition at 50 µM was 79%.

With `O=C(O)CC[N+](=O)[O-]` [BOVINOCIDIN (3-nitropropionic acid), 3-nitropropionic acid], the inhibition at 50 µM is 5%.

Regarding `O=C1C=C2CC3(O)COc4cc(O)ccc4C3=C2C=C1O` (stereo not shown) [BRAZILEIN], the inhibition at 50 µM came to 66%.

In the case of `Oc1ccc2c(c1)OC[C@]1(O)Cc3cc(O)c(O)cc3[C@H]21` [BRAZILIN], the inhibition at 50 µM came out at 133%.

Turning to `CC1(C)CC2C1CC[C@]1(CBr)CCC3C(CC(=O)O)C(=O)O[C@@]32C1` (stereo partly shown) [BROMO-3-HYDROXY-4-(SUCCIN-2-YL)-CARYOLANE gamma-LACTONE], the inhibition at 50 µM came to 1%.

Consider `O=C(CCCN1CCC(O)(c2ccc(Br)cc2)CC1)c1ccc(F)cc1` [BROMPERIDOL], for which the inhibition at 50 µM is 1%.

Take `CN(C)CCC(c1ccc(Br)cc1)c1ccccn1` (stereo not shown) [BROMPHENIRAMINE MALEATE]: the inhibition at 50 µM came out at 1%.

In the case of `COc1cc2c(cc1OC)[C@@]13CCN4CC5=CCO[C@H]6CC(=O)N2[C@H]1[C@H]6[C@H]5C[C@H]43` [BRUCINE], the inhibition at 50 µM was found to be 2%.

As for `CCOc1ccc(NC(=O)CC(C)O)cc1` (stereo not shown) [BUCETIN], the inhibition at 50 µM was determined as 0%.

As to `CCCC1O[C@@H]2C[C@H]3[C@@H]4CCC5=CC(=O)C=C[C@]5(C)[C@H]4[C@@H](O)C[C@]3(C)[C@]2(C(=O)CO)O1` (stereo partly shown) [BUDESONIDE], the inhibition at 50 µM was determined as 2%.

Consider `COc1cc(OC)c(C(=O)CCCN2CCCC2)c(OC)c1.Cl` [BUFLOMEDIL HYDROCHLORIDE], for which the “Inhibition (%)” value is given as 1.

In the case of `CCCCNc1cc(C(=O)O)cc(S(N)(=O)=O)c1Oc1ccccc1` [BUMETANIDE], the inhibition at 50 µM amounted to 1%.
